Test system: panel of breast cancer cell lines
Assay: Compound A with targeted agents and chemotherapies, 72-hour in vitro proliferation assays
Format: cell-based
Conditions: compound A × partner, 72-hour proliferation

## CC(C)NC[C@@H](C(=O)N1CCN(c2ncnc3c2[C@H](C)C[C@H]3O)CC1)c1ccc(Cl)cc1 [GDC-0068]
AU565 cell line
  Best CI: 0.88
  Bliss Volume: 5.42
  HSA volume: 2.46
  Loewe Volume: 1.85
  Synergy Score: 6.93
BT-20 cell line
  Best CI: 0.15
  Bliss Volume: 14.37
  HSA volume: 13.36
  Loewe Volume: 11.91
  Synergy Score: 26.99
CAL-51 cell line
  Best CI: 0.66
  Bliss Volume: 1.90
  HSA volume: 2.22
  Loewe Volume: 2.48
  Synergy Score: 1.93
CAL-85-1 cell line
  Best CI: 0.22
  Bliss Volume: −1.63
  HSA volume: 2.26
  Loewe Volume: 1.63
  Synergy Score: 4.37
CAL-120 cell line
  Best CI: 0.04
  Bliss Volume: −1.18
  HSA volume: −0.50
  Loewe Volume: 0.09
  Synergy Score: 1.05
CAL-148 cell line
  Best CI: 0.20
  Bliss Volume: 15.98
  HSA volume: 11.23
  Loewe Volume: 11.35
  Synergy Score: 22.09
CAMA-1 cell line
  Best CI: 0.11
  Bliss Volume: 26.60
  HSA volume: 14.33
  Loewe Volume: 13.52
  Synergy Score: 27.46
DU-4475 cell line
  Bliss Volume: −5.18
  HSA volume: −7.77
  Loewe Volume: −5.05
  Synergy Score: 0.20
EVSA-T cell line
  Best CI: 0.27
  Bliss Volume: 38.10
  HSA volume: 10.77
  Loewe Volume: 8.56
  Synergy Score: 18.16
HCC38
  Best CI: 1.04
  Bliss Volume: 3.63
  HSA volume: 6.49
  Loewe Volume: 5.61
  Synergy Score: 5.92
HCC70
  Best CI: 0.30
  Bliss Volume: 19.29
  HSA volume: 14.42
  Loewe Volume: 13.10
  Synergy Score: 27.63
HCC1143
  Best CI: 0.56
  Bliss Volume: 1.41
  HSA volume: −1.97
  Loewe Volume: 1.22
  Synergy Score: 3.73
HCC1569
  Best CI: 0.24
  Bliss Volume: 9.34
  HSA volume: 10.52
  Loewe Volume: 10.52
  Synergy Score: 15.41
HCC1806
  Best CI: 0.83
  Bliss Volume: 4.78
  HSA volume: −2.22
  Loewe Volume: 2.14
  Synergy Score: 2.21
HCC1937
  Best CI: 0.44
  Bliss Volume: 8.88
  HSA volume: 6.08
  Loewe Volume: 8.48
  Synergy Score: 6.18
HCC1954
  Best CI: 0.16
  Bliss Volume: 19.16
  HSA volume: 18.41
  Loewe Volume: 17.07
  Synergy Score: 33.91
HCC2218
  Best CI: 0.13
  Bliss Volume: 10.70
  HSA volume: 8.89
  Loewe Volume: 7.71
  Synergy Score: 22.09
HDQ-P1
  Best CI: 1.46
  Bliss Volume: −1.34
  HSA volume: −1.27
  Loewe Volume: −2.21
  Synergy Score: 1.94
HMC-1-8
  Best CI: 0.26
  Bliss Volume: 17.75
  HSA volume: 12.01
  Loewe Volume: 12.08
  Synergy Score: 21.76
JIMT-1
  Best CI: 0.26
  Bliss Volume: 2.76
  HSA volume: 1.18
  Loewe Volume: 1.53
  Synergy Score: 1.19
KPL-1
  Synergy Score: 10.58

## CC1(C)CCC(c2ccc(Cl)cc2)=C(CN2CCN(c3ccc(C(=O)NS(=O)(=O)c4ccc(N[C@H](CCN5CCOCC5)CSc5ccccc5)c(S(=O)(=O)C(F)(F)F)c4)cc3)CC2)C1 [ABT-263]
AU565 cell line
  Best CI: 0.61
  Bliss Volume: 9.56
  HSA volume: 3.63
  Loewe Volume: 8.42
  Synergy Score: 14.69
BT-20 cell line
  Best CI: 0.05
  Bliss Volume: 36.91
  HSA volume: 37.77
  Loewe Volume: 37.81
  Synergy Score: 84.06
CAL-51 cell line
  Best CI: 0.09
  Bliss Volume: 18.29
  HSA volume: 17.50
  Loewe Volume: 18.72
  Synergy Score: 39.59
CAL-85-1 cell line
  Best CI: 0.17
  Bliss Volume: 13.36
  HSA volume: 16.06
  Loewe Volume: 15.97
  Synergy Score: 29.64
CAL-120 cell line
  Best CI: 0.21
  Bliss Volume: 15.10
  HSA volume: 15.51
  Loewe Volume: 16.04
  Synergy Score: 24.96
CAL-148 cell line
  Best CI: 0.10
  Bliss Volume: 28.25
  HSA volume: 22.50
  Loewe Volume: 27.96
  Synergy Score: 51.82
CAMA-1 cell line
  Best CI: 0.14
  Bliss Volume: 19.67
  HSA volume: 17.49
  Loewe Volume: 19.32
  Synergy Score: 41.66
DU-4475 cell line
  Best CI: 0.48
  Bliss Volume: 24.62
  HSA volume: 22.37
  Loewe Volume: 22.67
  Synergy Score: 35.34
EVSA-T cell line
  Best CI: 0.36
  Bliss Volume: 15.42
  HSA volume: 14.19
  Loewe Volume: 14.63
  Synergy Score: 28.16
HCC38
  Best CI: 0.13
  Bliss Volume: 27.10
  Synergy Score: 37.11
HCC70
  Best CI: 0.03
  Bliss Volume: 44.63
  HSA volume: 44.49
  Loewe Volume: 44.97
  Synergy Score: 97.06
HCC1143 cell line
  Best CI: 0.05
  Bliss Volume: 27.56
  HSA volume: 26.07
  Loewe Volume: 27.51
  Synergy Score: 43.54
HCC1569
  Best CI: 0.13
  Bliss Volume: 27.53
  HSA volume: 24.55
  Loewe Volume: 26.18
  Synergy Score: 46.64
HCC1806
  Best CI: 0.03
  Bliss Volume: 45.40
  HSA volume: 46.37
  Loewe Volume: 46.26
  Synergy Score: 90.68
HCC1937
  Best CI: 0.18
  Bliss Volume: 26.87
  HSA volume: 22.28
  Loewe Volume: 26.31
  Synergy Score: 43.69
HCC1954
  Best CI: 0.03
  Bliss Volume: 36.37
  HSA volume: 36.78
  Loewe Volume: 37.10
  Synergy Score: 76.44
HCC2218
  Best CI: 0.07
  Bliss Volume: 28.59
  HSA volume: 29.77
  Loewe Volume: 28.05
  Synergy Score: 59.76
HDQ-P1
  Best CI: 0.09
  Bliss Volume: 27.19
  HSA volume: 27.41
  Loewe Volume: 28.17
  Synergy Score: 52.33
HMC-1-8
  Best CI: 0.20
  Bliss Volume: 13.21
  HSA volume: 10.36
  Loewe Volume: 11.80
  Synergy Score: 21.09
JIMT-1
  Best CI: 0.18
  Bliss Volume: 18.71
  HSA volume: 12.60
  Loewe Volume: 14.35
  Synergy Score: 19.55
KPL-1
  Best CI: 0.14
  Synergy Score: 13.50

— US11931424B2, “Combination MCL-1 inhibitors with anti-body drug conjugates” (Gilead Sciences, Inc., priority 2021, dated 2024)
